# pKd: −log10 of the molar value.
# Assays:
# [1] = target: T1, HgPres (naked mole-rat prestin) (Heterocephalus glaber, UniProt A0AAX6NYL9); assay: whole-cell nonlinear capacitance (NLC); type: cell-based; details: 10 mM salicylate in bath; HEK293T cells; room temperature; pH 7.3
# T1 construct: gene Slc26a5
# T1 sequence (A0AAX6NYL9 1-744): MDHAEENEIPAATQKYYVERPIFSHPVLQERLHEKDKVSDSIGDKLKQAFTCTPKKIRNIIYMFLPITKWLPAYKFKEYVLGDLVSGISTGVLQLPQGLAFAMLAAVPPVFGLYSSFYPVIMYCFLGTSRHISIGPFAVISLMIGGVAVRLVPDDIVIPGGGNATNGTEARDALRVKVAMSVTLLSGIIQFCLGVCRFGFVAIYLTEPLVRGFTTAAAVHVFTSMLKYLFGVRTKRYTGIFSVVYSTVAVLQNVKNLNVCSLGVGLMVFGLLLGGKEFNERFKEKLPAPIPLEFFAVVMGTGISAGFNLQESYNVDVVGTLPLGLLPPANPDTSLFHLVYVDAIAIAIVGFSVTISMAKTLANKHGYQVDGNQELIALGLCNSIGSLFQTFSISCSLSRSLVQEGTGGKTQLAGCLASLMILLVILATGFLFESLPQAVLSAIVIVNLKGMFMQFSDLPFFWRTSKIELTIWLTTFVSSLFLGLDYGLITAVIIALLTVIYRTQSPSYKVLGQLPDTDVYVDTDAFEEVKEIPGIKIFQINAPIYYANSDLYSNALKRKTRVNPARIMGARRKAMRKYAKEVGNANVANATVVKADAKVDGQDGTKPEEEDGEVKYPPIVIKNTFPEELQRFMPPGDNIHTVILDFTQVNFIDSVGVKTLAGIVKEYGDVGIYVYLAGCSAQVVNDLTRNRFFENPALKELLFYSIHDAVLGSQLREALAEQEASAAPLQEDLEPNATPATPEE
# [2] = target: T2, hPres (human prestin, SLC26A5) (Homo sapiens, UniProt P58743); assay: isothermal titration calorimetry; type: binding
# T2 construct: full-length; C-terminal TEV-FLAG-EGFP tag cleaved off; HEK293S GnTI- (BacMam); digitonin micelles
# T2 sequence (P58743 1-744): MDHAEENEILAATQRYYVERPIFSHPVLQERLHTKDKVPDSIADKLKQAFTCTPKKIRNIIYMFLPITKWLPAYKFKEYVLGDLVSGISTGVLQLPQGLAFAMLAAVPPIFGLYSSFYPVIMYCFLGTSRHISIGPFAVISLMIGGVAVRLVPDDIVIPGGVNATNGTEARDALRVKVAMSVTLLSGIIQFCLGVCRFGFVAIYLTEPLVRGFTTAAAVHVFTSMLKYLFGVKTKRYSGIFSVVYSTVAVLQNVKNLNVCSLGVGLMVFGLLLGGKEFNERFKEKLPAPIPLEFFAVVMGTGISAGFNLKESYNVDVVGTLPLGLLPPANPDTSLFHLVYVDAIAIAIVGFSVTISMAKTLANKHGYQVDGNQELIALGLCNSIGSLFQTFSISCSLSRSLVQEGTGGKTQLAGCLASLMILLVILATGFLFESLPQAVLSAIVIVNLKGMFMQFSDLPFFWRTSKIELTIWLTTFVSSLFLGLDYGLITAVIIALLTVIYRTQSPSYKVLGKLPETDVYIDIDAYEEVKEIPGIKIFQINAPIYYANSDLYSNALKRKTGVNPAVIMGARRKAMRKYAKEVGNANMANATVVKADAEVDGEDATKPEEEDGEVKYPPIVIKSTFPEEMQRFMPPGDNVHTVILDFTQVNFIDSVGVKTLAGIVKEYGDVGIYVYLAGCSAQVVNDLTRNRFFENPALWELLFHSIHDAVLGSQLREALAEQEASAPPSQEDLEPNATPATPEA
structure (smiles),measurement,setting,value
O=C(O)c1ccccc1O [salicylate],effect on NLC at 10 mM,[1],The effect of salicylate on the NLC of WT (left) and S398A-HgPres (right)
same,pKd,[2],2.15
